Test results from patent US11192871B2, “5-hydroxytryptamine receptor 7 activity modulators and their method of use” (Temple University-Of The Commonwealth System of Higher …, priority 2014, dated 2021).

Molecular target: Serotonin 5HT7 receptors (Homo sapiens (Human), UniProt P34969)
Test: Radiolabel Binding Studies for Serotonin 5HT7 receptors
Conditions: for inhibition at 10 µM: read-out: 5-HT7 % inhib @ 10 uM; for IC50: radioligand competition binding, membranes of cells expressing recombinant 5HT7 receptors
Method: Radiolabel Binding Studies for Scrotonin 5HT7 Receptors, Method 1:
Eleven dilutions (5× assay concentration) of the compound of the disclosure and chlorpromazine are prepared in the Assay Buffer by serial dilution to yield final corresponding assay concentrations ranging from 10 pM to 10 μM.
(§1) A stock concentration of 5 nM [^3H]LSD (lysergic acid diethyl amide) is prepared in 50 mM Tris-HCl, 10 mM MgCl2, 1 mM EDTA, pH 7.4 (Assay Buffer). Aliquots (50 μl) of radioligand are dispensed into the wells of a 96-well plate containing 100 μl of Assay Buffer. Duplicate 50-μl aliquots of the compound of the disclosure test and chlorpromazine positive control reference compound serial dilutions are added.
(§2) Membrane fractions of cells expressing recombinant 5HT7 receptors (50 μL) are dispensed into each well. The membranes are prepared from stably transfected cell lines expressing 5HT7 receptors cultured on 10-cm plates by harvesting PBS-rinsed monolayers, resuspending and lysing in chilled, hypotonic 50 mM Tris-HCl, pH 7.4, centrifuging at 20,000×g, decanting the supernatant and storing at −80° C.; the membrane preparations are resuspended in 3 ml of chilled Assay Buffer and homogenized by several passages through a 26 gauge needle before using in the assay.
The 250-μl reactions are incubated at room temperature for 1.5 hours, then harvested by rapid filtration onto 0.3% polyethyleneimine-treated, 96-well filter mats using a 96-well Filtermate harvester. Four rapid 500-μl washes are performed with chilled Assay Buffer to reduce non-specific binding. The filter mats are dried, then scintillant is added to the filters and the radioactivity retained on the filters is counted in a Microbeta scintillation counter.
Raw data (dpm) representing total radioligand binding (i.e., specific+non-specific binding) are plotted as a function of the logarithm of the molar concentration of the competitor (i.e., test or reference compound).
Radiolabel Binding Studies for Serotonin 5-HT7 Receptors, Method 2:
as §1, with “[^3H]-5-Hydroxytryptamine ([^3H]-5HT)” for “[^3H]LSD (lysergic acid diethyl amide)”
as §2, with “guage” for “gauge”

Structure (SMILES)	inhibition at 10 µM [%]	5-HT7 % inhib @ 10 uM (single concentration of 10 uM, percent inhibition of radioligand binding) [%]	IC50 [nM]
O=C1OC(CCN2CCN(c3ccc4[nH]ccc4c3)CC2)CC12CCCC2 (stereo not shown) [Entry 160147]	99.6	–	–
O=C1OC(CCN2CCN(c3ccnc(Cl)c3)CC2)CC12CCCCC2 (stereo not shown) [Entry 160153]	–	58.2	–
COc1ccnc(N2CCN(CCC3CC4(CCCC4)C(=O)O3)CC2)c1 (stereo not shown) [Entry 230009]	90	–	124
COc1ccc(N2CCN(CC[C@@H]3CC(C)(C)C(=O)O3)CC2)cc1 [Entry 230039]	–	–	1000
COc1ccc(N2CCN(CC[C@H]3CC(C)(C)C(=O)O3)CC2)cc1 [Entry 230046]	–	–	1000
CCC1(CC)CC(CCCN2CCN(c3ccc(OC)cc3)CC2)OC1=O (stereo not shown) [Entry 230060]	–	–	1000
CCC1(CC)CC(CCN2CCN(c3ccc4nc(C(F)(F)F)[nH]c4c3)CC2)OC1=O (stereo not shown) [Entry 230068]	–	–	1000
CCC1(CC)CC(CCN2CCN(c3ccc4nc(C)[nH]c4c3)CC2)OC1=O (stereo not shown) [Entry 230069]	15.9	–	1000
